Results from the supplement of paper PMC7021759.
± gives the standard deviation of the averaged measurements.

System: SK-N-MM (SKNMM-MYCN, doxycycline-inducible MYCN)
Experiment: area under dose-response curve (CellTiter-Glo viability normalised to plate controls) (AUC (arbitrary units)); higher = more loss of viability; extreme values may be limits of the assay
In short: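 In 96-well plates, SK-N-MM cells with doxycycline-inducible MYCN (1250 cells/100 μL) were given medium with or without doxycycline about 24 h after plating. Compound dilution series of 10 points at 1:3 were added two days later and again on day 4, and CellTiter-Glo luminescence was recorded 3 or 8 days after drugging. The area under the dose-response curve was derived from log2 signals normalised to the positive and negative controls on each plate.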

[1] = MYCN induction (doxycycline): +doxycycline (MYCN induced), time after drugging: 3 days
[2] = MYCN induction (doxycycline): +doxycycline (MYCN induced), time after drugging: 8 days
[3] = MYCN induction (doxycycline): no doxycycline (MYCN not induced), time after drugging: 3 days
[4] = MYCN induction (doxycycline): no doxycycline (MYCN not induced), time after drugging: 8 days

## CN[C@@H]1C[C@H]2O[C@@](C)([C@@H]1OC)n1c3ccccc3c3c4c(c5c6ccccc6n2c5c31)C(=O)N[C@H]4O [7-HYDROXYSTAUROSPORINE]
[1]
  area under dose-response curve: 204
[2]
  area under dose-response curve: 290
[3]
  area under dose-response curve: 144
[4]
  area under dose-response curve: 249

## COc1cc2c(cc1-c1c(C)noc1C)ncc1[nH]c(=O)n([C@H](C)c3ccccn3)c12 [I-BET151]
[1]
  area under dose-response curve: 10.5
[2]
  area under dose-response curve: 46.3
[3]
  area under dose-response curve: 14.6
[4]
  area under dose-response curve: 36.3

## CCN(CCCOc1ccc2c(Nc3cc(CC(=O)Nc4cccc(F)c4)[nH]n3)ncnc2c1)CCOP(=O)(O)O [BARASERTIB]
[1]
  area under dose-response curve: 19.5
[2]
  area under dose-response curve: 92.2
[4]
  area under dose-response curve: 33.5

## CCC(C)n1ncn(-c2ccc(N3CCN(c4ccc(OCC5COC(Cn6cncn6)(c6ccc(Cl)cc6Cl)O5)cc4)CC3)cc2)c1=O (stereo not drawn) [ITRACONAZOLE]
[1]
  area under dose-response curve: 13.1
[2]
  area under dose-response curve: 26.1
[3]
  area under dose-response curve: 11.4
[4]
  area under dose-response curve: 26.1

## O=C1NC(=O)[C@@H](c2cn3c4c(cccc24)CCC3)[C@@H]1c1c[nH]c2ccccc12 [TIVANTINIB]
[1]
  area under dose-response curve: 102
[2]
  area under dose-response curve: 135
[3]
  area under dose-response curve: 53.3
[4]
  area under dose-response curve: 77.2

## COc1cc2c(NC3CCN(C(C)C)CC3)nc(N3CCC(F)(F)CC3)nc2cc1OCCCN1CCCC1 [UNC0642]
[1]
  area under dose-response curve: 0
[2]
  area under dose-response curve: 203
[3]
  area under dose-response curve: 1.33
[4]
  area under dose-response curve: 145

## CCOc1ccn(-c2ccc(F)cc2)c(=O)c1C(=O)Nc1ccc(Oc2ccnc(N)c2Cl)c(F)c1
[1]
  area under dose-response curve: 0
[2]
  area under dose-response curve: 0
[3]
  area under dose-response curve: 4.76
[4]
  area under dose-response curve: 74.3

## CN1C(=O)[C@@]23C[C@]4([C@]56C[C@@]78SS[C@@](CO)(C(=O)N7[C@H]5Nc5ccccc56)N(C)C8=O)c5ccccc5N[C@@H]4N2C(=O)[C@]1(CO)SS3 [CHAETOCIN]
[1]
  area under dose-response curve: 327
[2]
  area under dose-response curve: 374
[3]
  area under dose-response curve: 349
[4]
  area under dose-response curve: 373

## CC12CC3CC(C)(C1)CC(N)(C3)C2 [MEMANTINE]
[1]
  area under dose-response curve: 0
[2]
  area under dose-response curve: 0
[3]
  area under dose-response curve: 0
[4]
  area under dose-response curve: 0

## Nc1nc(F)nc2c1ncn2[C@@H]1O[C@H](COP(=O)(O)O)[C@@H](O)[C@@H]1O [FLUDARABINE PHOSPHATE]
[1]
  area under dose-response curve: 0
[2]
  area under dose-response curve: 0
[3]
  area under dose-response curve: 0
[4]
  area under dose-response curve: 57.1

## CC1=C(/C=C/C(C)=C/C=C/C(C)=C/C(=O)O)C(C)(C)CCC1 [TRETINON]
[2]
  area under dose-response curve: 0.434
[3]
  area under dose-response curve: 1.4
[4]
  area under dose-response curve: 0

## C1=N/C2=N/c3ccc(OCCN4CCCC4)c(c3)COC/C=C/COCc3cccc(c3)C(=C1)N2 [PACRITINIB]
[1]
  area under dose-response curve: 170
[2]
  area under dose-response curve: 176
[3]
  area under dose-response curve: 165
[4]
  area under dose-response curve: 198

## CC(=O)O[C@@H](C)/C=C\C(=O)N[C@@H]1C[C@H](C)[C@H](C/C=C(C)/C=C/[C@H]2O[C@](C)(O)C[C@@]3(CO3)[C@@H]2O)O[C@@H]1C
[1]
  area under dose-response curve: 13.5
[2]
  area under dose-response curve: 33.2
[4]
  area under dose-response curve: 28.1

## CC[C@@H]1C(=O)N(C)c2cnc(Nc3ccc(C(=O)NC4CCN(C)CC4)cc3OC)nc2N1C1CCCC1 [BI-2536]
[1]
  area under dose-response curve: 85.3
[2]
  area under dose-response curve: 213
[3]
  area under dose-response curve: 65.4
[4]
  area under dose-response curve: 92.1

## CN(C)C1CCN(C(=O)c2ccc(NC(=O)Nc3ccc(-c4nc(N5CCOCC5)nc(N5CCOCC5)n4)cc3)cc2)CC1 [GEDATOLISIB]
[1]
  area under dose-response curve: 39.4
[2]
  area under dose-response curve: 0
[3]
  area under dose-response curve: 27.4
[4]
  area under dose-response curve: 47.7

## CCc1c2c(nc3ccc(O)cc13)-c1cc3c(c(=O)n1C2)COC(=O)[C@]3(O)CC [SN-38]
[1]
  area under dose-response curve: 152 ± 8.4
[2]
  area under dose-response curve: 295 ± 33
[3]
  area under dose-response curve: 67.4 ± 16
[4]
  area under dose-response curve: 181 ± 37

## CCN(CC)CCNC(=O)c1c(C)[nH]c(/C=C2\C(=O)Nc3ccc(F)cc32)c1C [SUNITINIB]
[1]
  area under dose-response curve: 3.49
[2]
  area under dose-response curve: 132
[3]
  area under dose-response curve: 3.64
[4]
  area under dose-response curve: 140

## Cn1nccc1Nc1nccc(-c2ccn([C@H](CO)c3ccc(Cl)c(F)c3)c(=O)c2)n1 [GDC-0994]
[1]
  area under dose-response curve: 0
[2]
  area under dose-response curve: 0
[3]
  area under dose-response curve: 2.52
[4]
  area under dose-response curve: 0

## Cn1cnc2c(F)c(Nc3ccc(Br)cc3F)c(C(=O)NOCCO)cc21 [BINIMETINIB]
[1]
  area under dose-response curve: 0
[2]
  area under dose-response curve: 0
[3]
  area under dose-response curve: 17.9
[4]
  area under dose-response curve: 56.9

## CN1CCCN(C(=O)c2cccc(-c3ccc(/C=C4/C(=O)Nc5ccc(Cl)cc54)o3)c2)CC1 [CX-6258]
[1]
  area under dose-response curve: 165
[2]
  area under dose-response curve: 206
[3]
  area under dose-response curve: 166
[4]
  area under dose-response curve: 202

## Nc1nc(Cl)nc2c1ncn2[C@@H]1O[C@H](CO)[C@@H](O)[C@@H]1F [CLOFARABINE]
[1]
  area under dose-response curve: 67.5
[2]
  area under dose-response curve: 248
[3]
  area under dose-response curve: 43
[4]
  area under dose-response curve: 141

## Cc1cnc(Nc2ccc(OCCN3CCCC3)cc2)nc1Nc1cccc(S(=O)(=O)NC(C)(C)C)c1 [FEDRATINIB]
[1]
  area under dose-response curve: 109
[2]
  area under dose-response curve: 176
[3]
  area under dose-response curve: 102
[4]
  area under dose-response curve: 151

## Nc1ncn([C@H]2C[C@H](O)[C@@H](CO)O2)c(=O)n1 [DECITABINE]
[1]
  area under dose-response curve: 4.2
[2]
  area under dose-response curve: 169
[3]
  area under dose-response curve: 0.521
[4]
  area under dose-response curve: 67.4

## CCCS(=O)(=O)Nc1ccc(F)c(C(=O)c2c[nH]c3ncc(-c4ccc(Cl)cc4)cc23)c1F [VEMURAFENIB]
[1]
  area under dose-response curve: 18.3
[2]
  area under dose-response curve: 24.6
[3]
  area under dose-response curve: 15.8
[4]
  area under dose-response curve: 0

## CCN1CCN(Cc2ccc(Nc3ncc(F)c(-c4cc(F)c5nc(C)n(C(C)C)c5c4)n3)nc2)CC1 [ABEMACICLIB]
[4]
  area under dose-response curve: 14.4

## CC1(C)CCC(c2ccc(Cl)cc2)=C(CN2CCN(c3ccc(C(=O)NS(=O)(=O)c4ccc(N[C@H](CCN5CCOCC5)CSc5ccccc5)c(S(=O)(=O)C(F)(F)F)c4)cc3)CC2)C1 [NAVITOCLAX]
[1]
  area under dose-response curve: 8.7
[2]
  area under dose-response curve: 3.92
[3]
  area under dose-response curve: 0
[4]
  area under dose-response curve: 0.362

## C[C@@H](Oc1cc(-c2cnn(C3CCNCC3)c2)cnc1N)c1c(Cl)ccc(F)c1Cl [CRIZOTINIB]
[1]
  area under dose-response curve: 145
[2]
  area under dose-response curve: 196
[3]
  area under dose-response curve: 147
[4]
  area under dose-response curve: 178

## CCOc1cc2ncc(C#N)c(Nc3ccc(OCc4ccccn4)c(Cl)c3)c2cc1NC(=O)/C=C/CN(C)C [NERATINIB]
[1]
  area under dose-response curve: 106
[2]
  area under dose-response curve: 154
[3]
  area under dose-response curve: 98.3
[4]
  area under dose-response curve: 151

## O=C(c1cc(Cc2n[nH]c(=O)c3ccccc23)ccc1F)N1CCN(C(=O)C2CC2)CC1 [OLAPARIB]
[1]
  area under dose-response curve: 9.23
[2]
  area under dose-response curve: 23.6
[4]
  area under dose-response curve: 0

## O=P1(N(CCCl)CCCl)NCCCO1 (stereo not drawn) [CYCLOPHOSPHAMIDE]
[1]
  area under dose-response curve: 0
[2]
  area under dose-response curve: 0
[3]
  area under dose-response curve: 0

## CNC(=O)c1cc(Oc2ccc(NC(=O)Nc3ccc(Cl)c(C(F)(F)F)c3)c(F)c2)ccn1 [REGORAFENIB]
[1]
  area under dose-response curve: 30.6
[2]
  area under dose-response curve: 47.7
[3]
  area under dose-response curve: 18.8
[4]
  area under dose-response curve: 61.4

## O=C(c1ccc(F)c(F)c1Nc1ccc(I)cc1F)N1CC(O)([C@@H]2CCCCN2)C1 [COBIMETINIB]
[2]
  area under dose-response curve: 145
[3]
  area under dose-response curve: 51.1
[4]
  area under dose-response curve: 104

## O=C1c2c(O)ccc(O)c2C(=O)c2c(NCCNCCO)ccc(NCCNCCO)c21 [MITOXANTHRONE]
[1]
  area under dose-response curve: 166
[2]
  area under dose-response curve: 325
[3]
  area under dose-response curve: 119
[4]
  area under dose-response curve: 258

## C/C=C1\NC(=O)[C@H]2CSSCC/C=C/[C@H](CC(=O)N[C@H](C(C)C)C(=O)N2)OC(=O)[C@H](C(C)C)NC1=O [ROMIDEPSIN]
[1]
  area under dose-response curve: 231
[2]
  area under dose-response curve: 416
[3]
  area under dose-response curve: 165
[4]
  area under dose-response curve: 398

## COC(=O)[C@]12CCC(C)(C)C[C@H]1[C@H]1C(=O)C=C3[C@@]4(C)C=C(C#N)C(=O)C(C)(C)[C@@H]4CC[C@@]3(C)[C@]1(C)CC2 [BARDOXOLONE METHYL]
[1]
  area under dose-response curve: 212
[2]
  area under dose-response curve: 243
[3]
  area under dose-response curve: 216
[4]
  area under dose-response curve: 226

## Cc1sc2c(c1C)C(c1ccc(Cl)cc1)=N[C@@H](CC(N)=O)c1nnc(C)n1-2 [CPI-203]
[1]
  area under dose-response curve: 2.86
[2]
  area under dose-response curve: 38.6
[3]
  area under dose-response curve: 8.36
[4]
  area under dose-response curve: 30.9

## CC(C)c1cc(-c2n[nH]c(=O)n2-c2ccc3c(ccn3C)c2)c(O)cc1O [GANETESPIB]
[1]
  area under dose-response curve: 169
[2]
  area under dose-response curve: 378
[3]
  area under dose-response curve: 202
[4]
  area under dose-response curve: 398

## COc1c(C)c2c(c(O)c1C/C=C(\C)CCC(=O)OCCN1CCOCC1)C(=O)OC2 [MYCOPHENOLATE MOFETIL]
[1]
  area under dose-response curve: 43.8
[2]
  area under dose-response curve: 115
[3]
  area under dose-response curve: 25.9
[4]
  area under dose-response curve: 51.4
